Test results published in the NIST ThermoML archive (doi:10.1021/acs.jced.8b00222).
Numbers after ± are expanded uncertainties.

Experiments:
[1] = 293.15 K; 101.33 kPa; Liquid; Pycnometric method
[2] = refractive index (Na D-line) (dimensionless); details: 293.15 K; 101.33 kPa; Liquid; Standard Abbe refractometry

| mass density [1] [kg/m3] | refractive index [2] | Compound |
| --- | --- | --- |
| 1048.93 ± 2.2 | 1.3717 ± 0.0008 | CC(=O)O [acetic acid] |
| 860.13 ± 2.1 | 1.4187 ± 0.0008 | COC1CCCC1 [methoxycyclopentane] |
|  | 1.3334 ± 0.0005 | O [water] |

| Compound | mass density [1] [kg/m3] | refractive index [2] |
| --- | --- | --- |
| O=Cc1ccco1 [2-furaldehyde] | 1159.16 ± 2.2 | 1.5259 ± 0.0008 |
